The source made the active and inactive calls. No cut-off for these calls is given here.
Assays:
CHO [1] = test: Displacement of CGP-64213 from GABA B1-ASA receptor mutant expressed in CHO cells at 1 uM; assay type: cell-based
HEK293 = test: Antagonist activity at GABA B receptor expressed in HEK293 cells assessed as inhibition of GABA-induced IP production at 10 uM after 15 mins; assay type: functional, cell-based
CHO [2] = test: Binding affinity at intracellular DsRed2-tagged GABA B receptor expressed in CHO cells at 1 uM by fluorescence confocal microscopy based photoaffinity labeling; assay type: cell-based
CHO [3] = test: Binding affinity at intracellular GABA B receptor expressed in CHO cells at 1uM before 15 mins of UV irradiation by […] microscopy based photoaffinity labeling; assay type: cell-based
CHO [4] = test: Increase in labeling efficiency in CHO cells expressing GABA B1-ASA receptor mutant after UV irradiation; assay type: cell-based
[5] = Antagonist activity at GABA B receptor expressed in HEK293 cells assessed as inhibition of GABA-induced IP production after 15 mins; assay type: functional, cell-based; conditions: HEK293, 0.25 h
CHO [6] = test: Binding affinity at cell surface GABA B receptor expressed in CHO cells at 1 uM before 15 mins of UV irradiation by […] microscopy based photoaffinity labeling

Row | Structure (SMILES) | Activity (CHO [1]) | Activity (HEK293) | Activity (CHO [2]) | Activity (CHO [3]) | Activity (CHO [4]) | IC50 [5] [nM] | Activity (CHO [6])
1 | CC1=CC(C)=[N+]2C1=C(CCCC(=O)NCCOCCOCCOc1cc(C3(C(F)(F)F)N=N3)ccc1CO)c1c(C)cc(C)n1[B-]2(F)F | inactive | inactive |  |  |  |  | 
2 | CC1=CC(C)=[N+]2C1=C(CCCC(=O)NCc1cn(CC(=O)NCCOCCOCCOc3cc(C4(C(F)(F)F)N=N4)ccc3C(=O)NCCCCCP(=O)(O)C[C@@H](O)CN[C@H](C)c3cccc(C(=O)O)c3)nn1)c1c(C)cc(C)n1[B-]2(F)F | Active |  | inactive | inactive | Active | 1030 | Active

Reference: ChEMBL document CHEMBL1150319, “Activity-based probe for specific photoaffinity labeling gamma-aminobutyric acid B (GABAB) receptors on living cells: design, synthesis, and biological evaluation” (J Med Chem, 2008)
